The target of this experiment is T1, muscarinic receptor (rat brain).
T1 construct: gene Chrm1; native receptors in particulate (40 000 g pellet) preparation of whole brain without cerebellum; subtype mixture not resolved
The experiment in a line: [3H]NMS displacement, rat brain membranes, filtration. Type of experiment: binding. Particulars: [3H]NMS 0.3 nM (0.5 nM in data analysis), 30 mM Na+/HEPES pH 7.5, 25 °C, 60 min; competitive. From the text: [3H]NMS displacement, rat brain membranes, filtration on muscarinic receptor (rat brain)

`COc1ccc(CC(C)NCC(O)c2ccc(O)c(NC=O)c2)cc1` (stereo not drawn) [Formoterol]: the IC50 (usually the point on the concentration scale where inhibition reaches its midpoint) was found to be 14.3 µM.

The molecule `OCc1cc(C(O)CNCCCCCCOCCCCc2ccccc2)ccc1O` (stereo not drawn) [Salmeterol] had an IC50 of 6.1 µM.

Consider `CN(C)CCCN1c2ccccc2Sc2ccc(Cl)cc21` [Chlorpromazine], for which the IC50 is 0.376 µM.

On to `OCc1cc([C@@H](O)CNCCCCCCOCCOCc2c(Cl)cccc2Cl)ccc1O` [Vilanterol], for which the IC50 was 6.1 µM.

Regarding `CC(C)C(=O)Oc1ccc(CO)cc1[C@H](CCN(C(C)C)C(C)C)c1ccccc1` [Fesoterodine], the IC50 stood at 0.012 µM.

In the case of `CN(CCCCCCN(C)C(=O)Oc1ccc[n+](C)c1)C(=O)Oc1ccc[n+](C)c1` [Distigmine], the IC50 was 1.7 µM. Compared with the last molecule, the IC50 is about 140-fold higher.

With `C[N+]1(C)CCCC(OC(=O)C(O)(c2ccccc2)c2ccccc2)C1` (stereo not drawn) [Mepenzolate], the IC50 came out at 0.00306 µM.

On to `OC(CCN1CCCCC1)(c1ccccc1)C1CC2C=CC1C2` (stereo not drawn) [Biperiden], for which the IC50 came out at 0.0105 µM.

The molecule `CNCCC=C1c2ccccc2CCc2ccccc21` [Nortriptyline] showed an IC50 of 0.168 µM.

`OC(c1ccccc1)(c1ccccc1)C12CC[N+](CCOCc3ccccc3)(CC1)CC2` [Umeclidinium] yielded an IC50 of 0.00015 µM.

The molecule `CN(C)CCC=C1c2ccccc2CCc2ccccc21` [Amitriptyline] showed an IC50 of 0.0293 µM.

`OC(CCCN1CCCCC1)(c1ccccc1)c1ccccc1` [Difenidol] showed an IC50 of 0.325 µM.

As for `CN(C)CCCN1c2ccccc2CCc2ccccc21` [Imipramine], the IC50 was 0.279 µM.

Regarding `CN1CCC2=C(C1)c1ccccc1Cc1ccccc12` [Setiptiline], the IC50 came out at 1.97 µM.

On to `COc1cc(O)c(C(=O)Nc2nc(C(=O)NCCN(C(C)C)C(C)C)cs2)cc1OC` [Acotiamide], for which the IC50 was 44.2 µM.

Regarding `Clc1ccc(C(OCCN2CCCCC2)c2ccccc2)cc1` (stereo not drawn) [Cloperastine], the IC50 is 0.0003 µM.

`Nc1nc(CC(=O)Nc2ccc(CCNC[C@H](O)c3ccccc3)cc2)cs1` [Mirabegron] came in with an IC50 of 6.62 µM.

Molecule `COc1cc2nc(N3CCN(C(=O)C4COc5ccccc5O4)CC3)nc(N)c2cc1OC` (stereo not drawn) [Doxazosin] yielded an IC50 of 13.2 µM.

As for `O=C(Nc1ccc(C[C@@H]2CC[C@H]([C@H](O)c3ccccc3)N2)cc1)[C@@H]1CCc2nccc(=O)n21` [Vibegron], the IC50 came to 5.32 µM.

Molecule `CNCc1cc(-c2ccccc2F)n(S(=O)(=O)c2cccnc2)c1` [Vonoprazan] had an IC50 of 1.7 µM. This IC50 lies about 3.1-fold lower than the previous one.

For the molecule `OC(CCN1CCCCC1)(c1ccccc1)c1ccccc1` [Pridinol], the IC50 came to 0.0536 µM. Compared with the last molecule, the IC50 is about 32-fold lower.

Turning to `C[C@@H]1C[C@H]2[C@@H]3C[C@H](F)C4=CC(=O)C=C[C@]4(C)[C@@]3(F)[C@@H](O)C[C@]2(C)[C@@]1(OC(=O)c1ccco1)C(=O)SCF` [Fluticasone furoate], the IC50 was determined as 18.2 µM. This IC50 is about 340-fold higher than that of the molecule before.

On to `CC(C)N(CCC(C(N)=O)(c1ccccc1)c1ccccn1)C(C)C` (stereo not drawn) [Disopyramide], for which the IC50 is 5.99 µM.

With `O=C(O[C@H]1CN2CCC1CC2)N1CCc2ccccc2[C@@H]1c1ccccc1` [Solifenacin], the IC50 was determined as 0.00738 µM.

`CC(C)(C)NCC(O)c1ccccc1Cl` (stereo not drawn) [Tulobuterol] registered an IC50 of 71.9 µM.

`CC(C)COCC(CN(Cc1ccccc1)c1ccccc1)N1CCCC1` (stereo not drawn) [Bepridil] yielded an IC50 of 20.8 µM. Against the preceding molecule, the IC50 is about 3.5-fold lower.

In turn, `CCc1cc2c(cc1CC)CC(NC[C@H](O)c1ccc(O)c3[nH]c(=O)ccc13)C2` [Indacaterol] gave a half-maximal inhibitory concentration (IC50) of 39.3 µM.

Molecule `CCCOC(C(=O)OC1CCN(C)CC1)(c1ccccc1)c1ccccc1` [Propiverine] came in with an IC50 of 0.35 µM. Compared with the last molecule, the IC50 is about 110-fold lower.

`CC#CCn1c(N2CCC[C@@H](N)C2)nc2c1c(=O)n(Cc1nc(C)c3ccccc3n1)c(=O)n2C` [Linagliptin]: the IC50 came out at 2.89 µM. Against the preceding molecule, the IC50 is about 8.3-fold higher.

Turning to `CC(CN(C)C)CN1c2ccccc2CCc2ccccc21` (stereo not drawn) [Trimipramine], the IC50 was found to be 0.099 µM.

`Cn1c(=O)cc(N2CCC[C@@H](N)C2)n(Cc2ccccc2C#N)c1=O` [Alogliptin] registered an IC50 of 81.5 µM.

In the case of `Cc1c(-c2ccccc2)oc2c(C(=O)OCCN3CCCCC3)cccc2c1=O` [Flavoxate], the IC50 was 11.5 µM.

As to `Clc1ccccc1CN1CCc2sccc2C1` [Ticlopidine], the IC50 worked out at 18 µM.

In turn, `Cc1cncc(CN2CCC(=C3c4ccc(Cl)cc4CCc4cccnc43)CC2)c1` [Rupatadine] had a 50% inhibitory concentration (IC50) of 1.51 µM.

Take `CCC(NC(C)C)C(O)c1ccc(O)c2[nH]c(=O)ccc12` (stereo not drawn) [Procaterol]: the IC50 turned out to be 3.9 µM.

Regarding `C[N+]1(C)[C@@H]2C[C@@H](OC(=O)C(O)(c3cccs3)c3cccs3)C[C@H]1[C@@H]1O[C@@H]12` [Tiotropium], the IC50 worked out at 0.00039 µM.

`CCCC[C@H](C)C[C@H](O)/C=C/[C@H]1[C@H](O)CC(=O)[C@@H]1CCCC/C=C/C(=O)O` [Limaprost] came in with an IC50 of 56.1 µM.

Turning to `CCc1ccc(C(=O)C(C)CN2CCCCC2)cc1` (stereo not drawn) [Eperisone], the IC50 was determined as 0.902 µM. Against the preceding molecule, the IC50 is about 62-fold lower.

In turn, `NC1=NCC2c3ccccc3Cc3ccccc3N12` (stereo not drawn) [Epinastine] showed an IC50 of 26.3 µM.

As for `CNCC[C@H](Oc1cccc2ccccc12)c1cccs1` [Duloxetine], the IC50 was 19.3 µM.

Molecule `COCCCOc1ccnc(C[S+]([O-])c2nc3ccccc3[nH]2)c1C` (stereo not drawn) [Rabeprazole] yielded an IC50 of 18.1 µM. The IC50 values of the last two molecules are within 1.5-fold of each other.

On to `OC[C@H]1O[C@@H](c2ccc(Cl)c(Cc3ccc(O[C@H]4CCOC4)cc3)c2)[C@H](O)[C@@H](O)[C@@H]1O` [Empagliflozin], for which the IC50 worked out at 22.1 µM.

In turn, `CN(C)CCC(c1ccc(Cl)cc1)c1ccccn1` (stereo not drawn) [Chlorpheniramine] registered an IC50 of 5.1 µM.

`CCC(=O)O[C@]1(C(=O)SCF)[C@H](C)C[C@H]2[C@@H]3C[C@H](F)C4=CC(=O)C=C[C@]4(C)[C@@]3(F)[C@@H](O)C[C@@]21C` [Fluticasone Propionate] returned an IC50 of 8 µM.

The molecule `CN(C)CCOC1=Cc2ccccc2Sc2ccc(Cl)cc21` [Zotepine] yielded an IC50 of 0.554 µM.
